Results reported in article PMC9090141 (Pediatric blood & cancer, 2021).
Several values for one entry are separate records, joined by “and”; a condition that tells them apart may be missing. Identical values can stand only once. Entries after “also recorded” stand apart in the source; their conditions may differ. Counter-ions that a name gives are not always drawn.

What was measured:
[1] = Plasma pharmacokinetics in cycle 1; type: in vivo, human; conditions: for Tmax / half-life / concentration at 24 h / AUC(0-inf) / AUC(0-t) / Cmax: plasma; for concentration at 24 h: RP2D (150 mg/m^2)
[2] = test system: recurrent or refractory solid and CNS tumors; test: Radiographic antitumor response; type: in vivo, human
[3] = in vivo; cited from earlier work
[4] = test system: pCHK1; conditions: cited from earlier work
[5] = test system: adults with advanced or metastatic solid tumors; conditions: cited from earlier work
[6] = 80 mg/m^2 IV over 60 min, first dose cycle 1, 6 patients
[7] = 100 mg/m^2 IV over 60 min, first dose cycle 1, 6 patients
[8] = 125 mg/m^2 IV over 60 min, first dose cycle 1, 5 patients
[9] = 150 mg/m^2 IV over 60 min, first dose cycle 1, 12 patients
[10] = All Patients (80-150 mg/m^2), first dose cycle 1, 29 patients
[11] = 25 patients evaluable for response

COc1cccc(OCCCN)c1-c1cc(Nc2cnc(C#N)cn2)n[nH]1 [prexasertib, Prexasertib mesylate monohydrate]
CLp [1, 6]: 48.2 ± 11.5 L/hr/m^2
Vss [1, 6]: 245 ± 67 L/m^2
CLp [1, 7]: 45.1 L/hr/m^2 and 45.1 ± 12.6 L/hr/m^2
Vss [1, 7]: 332 ± 85 L/m^2
CLp [1, 8]: 49.3 ± 10.3 L/hr/m^2
Vss [1, 8]: 292 ± 169 L/m^2
CLp [1, 9]: 44.4 L/hr/m^2 and 44.4 ± 13.5 L/hr/m^2
Vss [1, 9]: 257 ± 98 L/m^2
exposure relative to the adult RP2D ([1]; 150 mg/m^2 vs RP2D from either adult study): twice the exposure
dose proportionality / linearity of PK ([1]; 80–150 mg/m^2 dose range, single dose): linear; also recorded: proportional to dose
CLp [1, 10]: 46.1 ± 12.0 L/hr/m^2
Vss [1, 10]: 276 ± 102 L/m^2
BSA-adjusted plasma clearance ([1]; children <12 years (N=16)): 49.4 ± 10.0 L/hr/m^2
plasma clearance ([1]; females (N=9)): 47.1 ± 9.7 L/hr/m^2
time plasma concentrations maintained above the IC50 for pCHK1 inhibition ([1]; human, in vivo): approximately 24 hours
Tmax ([1]; human, intravenous): 1.2 ± 0.5 h
half-life ([1]; human, intravenous): 8.9 ± 3.4 h
concentration at 24 h ([1]; human, intravenous, 150 mg/m^2, median plasma concentration 24 hours after the first dose (C-24h)): 13.4 ng/mL
concentration at 24 h ([1]; human, intravenous, 150 mg/m^2, range of plasma concentration 24 hours after the first dose (C-24h)): 7.6 to 43.6 ng/mL
AUC(0-inf) ([1]; human, iv, 80 mg/m2): 1730 ± 387 ng·h/mL
AUC(0-t) ([1]; human, iv, 80 mg/m2): 1620 ± 358 ng·h/mL
Cmax ([1]; human, iv, 80 mg/m2): 858 ± 311 ng/mL
Tmax ([1]; human, iv, 80 mg/m2): 1.4 ± 0.9 h
half-life ([1]; human, iv, 80 mg/m2): 7.6 ± 2.3 h
AUC(0-inf) ([1]; human, iv, 100 mg/m2): 2380 ± 712 ng·h/mL
AUC(0-t) ([1]; human, iv, 100 mg/m2): 2010 ± 416 ng·h/mL
Cmax ([1]; human, iv, 100 mg/m2): 984 ± 289 ng/mL
Tmax ([1]; human, iv, 100 mg/m2): 1.1 ± 0.2 h
half-life ([1]; human, iv, 100 mg/m2): 10 ± 3.9 h
AUC(0-inf) ([1]; human, iv, 125 mg/m2): 2640 ± 632 ng·h/mL
AUC(0-t) ([1]; human, iv, 125 mg/m2): 2460 ± 545 ng·h/mL
Cmax ([1]; human, iv, 125 mg/m2): 1230 ± 212 ng/mL
Tmax ([1]; human, iv, 125 mg/m2): 1.1 ± 0.1 h
half-life ([1]; human, iv, 125 mg/m2): 8.5 ± 4.5 h
AUC(0-inf) ([1]; human, iv, 150 mg/m2): 3680 ± 1060 ng·h/mL
AUC(0-t) ([1]; human, iv, 150 mg/m2): 3360 ± 898 ng·h/mL
Cmax ([1]; human, iv, 150 mg/m2): 1700 ± 822 ng/mL
Tmax ([1]; human, iv, 150 mg/m2): 1.2 ± 0.5 h
half-life ([1]; human, iv, 150 mg/m2): 9.2 ± 3.5 h
plasma clearance ([1]; males (N=20)): 45.6 ± 13.1 L/hr/m^2
BSA-adjusted plasma clearance ([1]; ≥12 years (N=13)): 42.2 ± 13.3 L/hr/m^2
best overall response (BOR) [2, 11]: stable disease in 3 patients; also recorded: Three patients had a best overall response (BOR) of stable disease
objective responses [2, 11]: no objective responses
duration of stable disease ([2]; patient with (anaplastic) ependymoma, dose level 2): 3 cycles
duration of stable disease ([2]; patient with hepatocellular carcinoma, dose level 1): 5 cycles
duration of stable disease ([2]; patient with undifferentiated sarcoma, dose level 3): 5 cycles
CNS penetration [3]: adequate CNS penetration
median AUC0–72h predicted for efficacy ([4]; Calu-6 preclinical PK/PD model): 1896 ng·h/mL
IC50 for pCHK1 inhibition (plasma concentration) [4]: 14.1 ng/ml
dose-limiting toxicities at the adult RP2D ([5]; 105 mg/m^2 IV once every 14 days): no dose-limiting toxicities
adult recommended Phase 2 dose (RP2D) ([5]; IV once every 14 days): 105 mg/m^2
